Test results as given in patent publication US5216175A, “Antimalarial analogs of artemisinin” (SRI International, priority 1990, dated 1993).
Converted amounts (≈) assume the structure as drawn.

Experiments:
[1] = system: P. falciparum W-2 clone; assay: In vitro antimalarial activity, P. falciparum W-2 clone; assay type: cell-based; conditions: Table 3, tricyclic analogs, W-2 clone
From the text: (§1) The analogs have been segregated arbitrarily here into those compounds in which the tetracyclic skeleton is intact (Table 2) and various ring-cleaved analogs (Table 3). The activities of the conventional malaria therapeutics chloroquine, mefloquine, and pyrimethamine is included for comparison.

[2] = system: P. falciparum D-6 clone; assay: In vitro antimalarial activity, P. falciparum D-6 clone; assay type: cell-based; conditions: Table 3, tricyclic analogs, D-6 clone
From the text: as §1

[3] = system: P. falciparum; assay: In vitro antimalarial activity / SAR data, clone not stated; assay type: cell-based; conditions: of the activity of 12 (artemisinin); clone not stated
From the text: as §1

[4] = Brossi et al.; cited from earlier work

Row | SMILES | IC50 ([1]; Plasmodium falciparum, read-out: In vitro IC50 W-2 clone) [µg/mL] | Relative potency (W-2 clone) [1] | IC50 ([2]; Plasmodium falciparum, read-out: In vitro IC50 D-6 clone) [µg/mL] | Relative potency (D-6 clone) [2] | activity relative to 12 [3] | potency relative to artemisinin (12) [4]
1 | C[C@H]1C(=O)O[C@@H]2OC(C)(C)OO[C@@]23CCCC[C@@H]13 (relative stereo) [compound 4582] | 0.0381 (≈ 0.149 µM) | 6 | 0.0222 (≈ 0.0867 µM) | 20 | about 20% | 
2 | CCO[C@H]1O[C@@H]2O[C@@]3(C)CC[C@H]4[C@H](C)CC[C@@H]([C@H]1C)[C@@]24OO3 [arteether] |  |  |  |  |  | higher potency
